In PubChem BioAssay AID2060494 (Molecular Pharmacology Branch, DTP, NCI, 2025):

Test system: 435261-313-R-J1-PDC complex spheroid viability
Experiment: Anticancer human tumor 435261-313-R-J1-PDC patient-derived colon adenocarcinoma cell line growth inhibition [GQUAD]
Settings: for IC50: curve of first compound; for viability, T/C: stronger effect = lower value
In short: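 Tumor cells were grown as complex spheroids with HUVEC endothelial cells and mesenchymal stem cells as stroma. G-quadruplex stabilizers were combined with targeted agents over half-log dilutions from near the clinical Cmax, or from 10 microM.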

[1] = second compound 0.0316 µM, first compound 0.000999 µM
[2] = second compound 0.0316 µM, first compound 0.00316 µM
[3] = second compound 0.0316 µM, first compound 0.00999 µM
[4] = second compound 0.0316 µM, first compound 0.0316 µM
[5] = second compound 0.0316 µM, first compound 0.0999 µM
[6] = second compound 0.0316 µM, first compound 0.316 µM
[7] = second compound 0.1 µM, first compound 0.000999 µM
[8] = second compound 0.1 µM, first compound 0.00316 µM
[9] = second compound 0.1 µM, first compound 0.00999 µM
[10] = second compound 0.1 µM, first compound 0.0316 µM
[11] = second compound 0.1 µM, first compound 0.0999 µM
[12] = second compound 0.1 µM, first compound 0.316 µM
[13] = second compound 0.316 µM, first compound 0.000999 µM
[14] = second compound 0.316 µM, first compound 0.00316 µM
[15] = second compound 0.316 µM, first compound 0.00999 µM
[16] = second compound 0.316 µM, first compound 0.0316 µM
[17] = second compound 0.316 µM, first compound 0.0999 µM
[18] = second compound 0.316 µM, first compound 0.316 µM
[19] = second compound 1 µM, first compound 0.000999 µM
[20] = second compound 1 µM, first compound 0.00316 µM
[21] = second compound 1 µM, first compound 0.00999 µM
[22] = second compound 1 µM, first compound 0.0316 µM
[23] = second compound 1 µM, first compound 0.0999 µM
[24] = second compound 1 µM, first compound 0.316 µM
[25] = second compound 3.16 µM, first compound 0.000999 µM
[26] = second compound 3.16 µM, first compound 0.00316 µM
[27] = second compound 3.16 µM, first compound 0.00999 µM
[28] = second compound 3.16 µM, first compound 0.0316 µM
[29] = second compound 3.16 µM, first compound 0.0999 µM
[30] = second compound 3.16 µM, first compound 0.316 µM
[31] = second compound 10 µM, first compound 0.000999 µM
[32] = second compound 10 µM, first compound 0.00316 µM
[33] = second compound 10 µM, first compound 0.00999 µM
[34] = second compound 10 µM, first compound 0.0316 µM
[35] = second compound 10 µM, first compound 0.0999 µM
[36] = second compound 10 µM, first compound 0.316 µM
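Further: spheroids exposed to the agents for seven days before readout.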
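Wherever viability, T/C is given: percent of vehicle control viability with DMSO wells as 100%.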

CC[C@@]1(O)C(=O)OCc2c1cc1n(c2=O)Cc2cc3c(CN(C)C)c(O)ccc3nc2-1 + Cc1[nH]c2ccc(F)cc2c1-c1nc2c3cccnc3c3ncccc3c2[nH]1
IC50 (second compound 0.0316 µM): > 316 nM | IC50 (second compound 0.1 µM): > 316 nM | IC50 (second compound 0.316 µM): > 316 nM | IC50 (second compound 1 µM): > 316 nM | IC50 (second compound 3.16 µM): < 0.999 nM | IC50 (second compound 10 µM): < 0.999 nM | viability, T/C [1]: 90.1% | viability, T/C [2]: 76.8% | viability, T/C [3]: 84.8% | viability, T/C [4]: 74.6% | viability, T/C [5]: 72.9% | viability, T/C [6]: 69% | viability, T/C [7]: 106% | viability, T/C [8]: 74.9% | viability, T/C [9]: 108% | viability, T/C [10]: 73.6% | viability, T/C [11]: 72.8% | viability, T/C [12]: 59.8% | viability, T/C [13]: 89.3% | viability, T/C [14]: 80% | viability, T/C [15]: 114% | viability, T/C [16]: 59.3% | viability, T/C [17]: 58.7% | viability, T/C [18]: 52.6% | viability, T/C [19]: 41.9% | viability, T/C [20]: 67.6% | viability, T/C [21]: 67.9% | viability, T/C [22]: 64.5% | viability, T/C [23]: 54.2% | viability, T/C [24]: 47.1% | viability, T/C [25]: 41.4% | viability, T/C [26]: 34.2% | viability, T/C [27]: 37.4% | viability, T/C [28]: 28.2% | viability, T/C [29]: 23.9% | viability, T/C [30]: 33.8% | viability, T/C [31]: 19.3% | viability, T/C [32]: 25.4% | viability, T/C [33]: 18.3% | viability, T/C [34]: 24.9% | viability, T/C [35]: 20.7% | viability, T/C [36]: 17.9%

CCc1c2c(nc3ccc(O)cc13)-c1cc3c(c(=O)n1C2)COC(=O)[C@]3(O)CC + Cc1[nH]c2ccc(F)cc2c1-c1nc2c3cccnc3c3ncccc3c2[nH]1
IC50 (second compound 0.0316 µM): 21.2 nM | IC50 (second compound 0.1 µM): 23.2 nM | IC50 (second compound 0.316 µM): 23.8 nM | IC50 (second compound 1 µM): < 0.999 nM | IC50 (second compound 3.16 µM): < 0.999 nM | IC50 (second compound 10 µM): < 0.999 nM | viability, T/C [1]: 119% | viability, T/C [2]: 62.1% | viability, T/C [3]: 67% | viability, T/C [4]: 46.7% | viability, T/C [5]: 51.3% | viability, T/C [6]: 33.8% | viability, T/C [7]: 93.9% | viability, T/C [8]: 64.4% | viability, T/C [9]: 58.5% | viability, T/C [10]: 49.4% | viability, T/C [11]: 46.5% | viability, T/C [12]: 33.9% | viability, T/C [13]: 53.6% | viability, T/C [14]: 51.5% | viability, T/C [15]: 53.2% | viability, T/C [16]: 49.1% | viability, T/C [17]: 31.8% | viability, T/C [18]: 29.7% | viability, T/C [19]: 45.6% | viability, T/C [20]: 55.6% | viability, T/C [21]: 32.9% | viability, T/C [22]: 34% | viability, T/C [23]: 33.1% | viability, T/C [24]: 23.8% | viability, T/C [25]: 32.8% | viability, T/C [26]: 30.6% | viability, T/C [27]: 35.4% | viability, T/C [28]: 24% | viability, T/C [29]: 20.1% | viability, T/C [30]: 21.2% | viability, T/C [31]: 22.2% | viability, T/C [32]: 18.8% | viability, T/C [33]: 25.3% | viability, T/C [34]: 16.7% | viability, T/C [35]: 16.1% | viability, T/C [36]: 17.3%
